Patent publication US7179934B2, “Amino acids with affinity for the α2δ-protein” (Warner-Lambert Company LLC, priority 2003, dated 2007)

System: α2δ-subunit derived from porcine brain tissue
Experiment: radioligand binding assay using [3H]-gabapentin
Details: [3H]-gabapentin radioligand
From the text: The ability of compounds of the present invention to bind to the α2δ-subunit of a calcium channel can be determined using the following binding assay.
The radioligand binding assay using [^3H]-gabapentin and the α2δ-subunit derived from porcine brain tissue was used. See Nicolas S. Gee et al., “The novel anticonvulsant drug, gabapentin (Neurontin), binds to the α2δ subunit of a calcium channel,” J. Biol. Chem. 271 (10):5768–76 (1996). Compounds of the invention bind with nanomolar to micromolar affinity for the α2δ protein.

CCCCC(CC)CCC(CN)C(=O)O (stereo not shown) [2-aminomethyl-5-ethyl-nonanoic acid]
affinity to the α2δ protein: 75 nM
